# From the supplement of paper PMC10307832
# Assays:
# Experiment in all cases: relative viability (nuclei count vs DMSO), 5 days (fraction); higher = more cells survive
# [1] = compound: O=C(C[C@H]1NCCC[C@@H]1O)Cn1cnc2cc(Br)c(Cl)cc2c1=O (racemic) [Halofuginone] + COc1cc2c(Oc3ccc(NC(=O)C4(C(=O)Nc5ccc(F)cc5)CC4)cc3F)ccnc2cc1OCCCN1CCOCC1 [Foretinib] (partner 0.25 µM)
# In short: (§1)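 Each reported value is a median over duplicate plates. It expresses relative viability: treated-well nuclei count divided by vehicle-well nuclei count. Lung cancer cell lines in 1536-well plates were dosed by pin tool a day after seeding, alone with one drug or with a fixed anchor-drug dose plus five library-drug doses (not always all listed) in √10 steps, and nuclei were counted after 5 days.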
# [2] = compound: O=C(C[C@H]1NCCC[C@@H]1O)Cn1cnc2cc(Br)c(Cl)cc2c1=O (racemic) [Halofuginone] + Cc1nc(Nc2ncc(C(=O)Nc3c(C)cccc3Cl)s2)cc(N2CCN(CCO)CC2)n1 [Dasatinib] (partner 0.075 µM)
# In short: as §1
# [3] = compound: Nc1ncn([C@H]2C[C@H](O)[C@@H](CO)O2)c(=O)n1 [Decitabine] + C[C@@H](Oc1cc(-c2cnn(C3CCNCC3)c2)cnc1N)c1c(Cl)ccc(F)c1Cl [Crizotinib] (partner 1 µM)
# In short: as §1
# [4] = compound: O=C(C[C@H]1NCCC[C@@H]1O)Cn1cnc2cc(Br)c(Cl)cc2c1=O (racemic) [Halofuginone] + N=C(N)NC(=N)NCCc1ccccc1 [Phenformin] (partner 250 µM)
# In short: as §1
Cell Line,relative viability ([1]; first compound 0.001 µM),relative viability ([1]; first compound 0.003162 µM),relative viability ([1]; first compound 0.01 µM),relative viability ([1]; first compound 0.03162 µM),relative viability ([1]; first compound 0.1 µM),relative viability ([2]; first compound 0.001 µM),relative viability ([2]; first compound 0.003162 µM),relative viability ([2]; first compound 0.01 µM),relative viability ([2]; first compound 0.03162 µM),relative viability ([2]; first compound 0.1 µM),relative viability ([3]; first compound 0.04 µM),relative viability ([3]; first compound 0.1265 µM),relative viability ([3]; first compound 0.4 µM),relative viability ([3]; first compound 1.265 µM),relative viability ([3]; first compound 4 µM),relative viability ([4]; first compound 0.001 µM),relative viability ([4]; first compound 0.003162 µM),relative viability ([4]; first compound 0.01 µM),relative viability ([4]; first compound 0.03162 µM),relative viability ([4]; first compound 0.1 µM)
LC-2-ad,0.928,0.973,0.866,1,0.497,0.711,0.517,0.511,0.565,0.209,0.391,0.371,0.34,0.262,0.283,0.694,0.581,0.536,0.677,0.466
LCLC-97TM1,1.02,0.947,0.935,1.02,0.935,0.78,0.902,0.775,0.826,0.775,0.155,0.16,0.18,0.15,0.101,0.4,0.408,0.351,0.417,0.332
LCLC-103H,0.871,0.768,0.813,0.749,0.848,0.551,0.423,0.472,0.48,0.388,1.01,1.02,0.78,0.82,0.79,0.35,0.341,0.323,0.326,0.309
LK-2,1.03,1.42,1.29,0.972,0.875,0.318,0.329,0.328,0.251,0.26,–,0.219,0.262,0.265,0.219,0.627,0.598,0.404,0.372,0.221
LOU-NH91,0.985,0.917,0.887,0.925,0.949,0.632,0.578,0.555,0.582,0.498,0.509,0.683,0.615,0.613,0.656,0.75,0.686,0.65,0.786,0.628
LU99A,0.8,0.725,0.817,0.814,0.768,0.743,0.584,0.453,0.53,0.392,0.517,0.491,0.631,0.439,0.317,0.945,1.08,0.841,0.764,0.735
LXF-289,1.01,1.04,0.927,1.01,0.922,0.318,0.266,0.267,0.222,0.198,0.579,0.557,0.432,0.341,0.308,0.533,0.519,0.498,0.508,0.507
NCI-H23,1,0.919,0.852,0.991,0.478,0.862,0.86,0.891,0.741,0.472,0.338,0.373,0.21,0.175,0.163,0.774,0.762,0.757,0.806,0.669
NCI-H322M,0.896,0.948,0.913,0.833,0.374,0.27,0.26,0.251,0.208,0.212,0.724,0.661,0.673,0.36,0.363,0.783,0.728,0.721,0.566,0.478
NCI-H358,0.754,0.393,0.448,0.212,0.0804,0.175,0.188,0.115,0.0901,0.0916,0.385,0.39,0.246,0.192,0.161,0.303,0.312,0.261,0.189,0.079
NCI-H441,1.08,1.03,0.823,0.643,0.362,0.654,0.576,0.668,0.459,0.237,0.361,0.224,0.223,0.188,0.184,0.976,1.05,0.87,0.839,0.564
NCI-H460,1.01,1.08,0.899,0.942,0.113,0.571,0.542,0.445,0.349,0.157,0.524,0.623,0.22,0.186,0.126,0.512,0.549,0.543,0.493,0.126
NCI-H520,0.808,0.798,0.767,0.58,0.424,0.215,0.173,0.175,0.16,0.17,0.654,0.544,0.399,0.308,0.26,0.606,0.78,0.569,0.582,0.193
NCI-H596,0.885,0.804,0.78,0.69,0.314,0.538,0.533,0.598,0.559,0.366,0.939,1.02,0.353,0.772,0.755,0.732,0.84,0.742,0.938,0.569
NCI-H647,1.18,1.23,1.16,0.979,0.528,0.219,0.216,0.188,0.171,0.099,0.852,0.704,0.549,0.211,0.174,0.659,0.642,0.544,0.368,0.195
NCI-H650,1.07,0.966,0.965,1.06,0.885,0.528,0.478,0.47,0.452,0.367,0.533,0.524,0.303,0.264,0.195,0.507,0.501,0.437,0.424,0.374

Cell Line,relative viability ([1]; first compound 0.001 µM),relative viability ([1]; first compound 0.003162 µM),relative viability ([1]; first compound 0.01 µM),relative viability ([1]; first compound 0.03162 µM),relative viability ([1]; first compound 0.1 µM),relative viability ([2]; first compound 0.001 µM),relative viability ([2]; first compound 0.003162 µM),relative viability ([2]; first compound 0.01 µM),relative viability ([2]; first compound 0.03162 µM),relative viability ([2]; first compound 0.1 µM),relative viability ([3]; first compound 0.04 µM),relative viability ([3]; first compound 0.1265 µM),relative viability ([3]; first compound 0.4 µM),relative viability ([3]; first compound 1.265 µM),relative viability ([3]; first compound 4 µM),relative viability ([4]; first compound 0.001 µM),relative viability ([4]; first compound 0.003162 µM),relative viability ([4]; first compound 0.01 µM),relative viability ([4]; first compound 0.03162 µM),relative viability ([4]; first compound 0.1 µM)
NCI-H661,1.05,1.01,1,0.815,0.6,0.954,0.884,0.856,0.79,0.378,0.929,0.945,0.918,0.619,0.523,0.296,0.298,0.295,0.274,0.284
NCI-H727,1.11,0.884,0.732,0.738,0.527,0.417,0.411,0.397,0.396,0.263,0.711,0.513,0.537,0.341,0.33,0.784,0.577,0.422,0.628,0.317
NCI-H838,1.18,1.02,1,0.681,0.395,0.312,0.307,0.339,0.228,0.17,0.389,0.314,0.228,0.248,0.2,0.668,0.713,0.525,0.347,0.199
NCI-H1355,1.02,0.95,0.88,0.983,0.884,0.762,0.764,0.727,0.692,0.458,0.642,0.495,0.413,0.29,0.281,0.456,0.503,0.429,0.441,0.407
NCI-H1437,1.31,1.26,1.22,1.2,1.21,0.377,0.445,0.431,0.364,0.285,0.692,0.748,0.632,0.297,0.216,0.329,0.308,0.3,0.297,0.258
NCI-H1563,0.985,0.879,0.905,0.662,0.509,0.477,0.432,0.418,0.487,0.408,0.947,0.861,0.908,0.905,0.799,0.659,0.638,0.615,0.602,0.549
NCI-H1650,1.33,1.11,0.964,0.601,0.177,0.339,0.329,0.293,0.2,0.166,0.838,0.603,0.331,0.326,0.241,0.495,0.467,0.413,0.442,0.188
NCI-H1651,0.91,0.814,0.696,0.519,0.416,0.526,0.494,0.377,0.258,0.162,0.788,0.836,0.755,0.586,0.635,0.377,0.34,0.333,0.35,0.276
NCI-H1666,0.979,0.934,1.01,0.952,0.936,0.812,0.802,0.753,0.766,0.664,0.7,0.75,0.708,0.512,0.46,0.587,0.612,0.562,0.56,0.475
NCI-H1734,0.961,0.809,0.831,0.751,0.485,0.52,0.558,0.436,0.449,0.293,0.515,0.603,0.593,0.396,0.304,0.369,0.436,0.427,0.408,0.369
NCI-H1755,0.943,0.955,0.861,0.895,0.877,0.514,0.435,0.465,0.422,0.291,0.762,0.811,0.804,0.53,0.317,0.636,0.629,0.617,0.665,0.615
NCI-H1915,1.12,1.16,1.07,1.03,0.97,0.308,0.332,0.322,0.294,0.23,0.314,0.285,0.217,0.194,0.201,0.361,0.386,0.366,0.339,0.355
NCI-H1944,0.865,0.89,0.853,0.899,0.561,0.229,0.236,0.209,0.207,0.155,0.787,0.859,0.627,0.45,0.387,0.179,0.225,0.208,0.218,0.172
NCI-H1975,0.945,1.04,0.796,0.79,0.251,0.375,0.324,0.348,0.231,0.117,0.491,0.355,0.312,0.305,0.28,0.403,0.397,0.422,0.356,0.365
NCI-H1993,0.911,0.749,0.727,0.772,0.734,0.619,0.558,0.562,0.532,0.434,0.898,0.776,0.832,0.702,0.728,0.436,0.554,0.448,0.535,0.577
NCI-H2009,1.21,1.23,1.13,1.18,0.775,0.313,0.385,0.289,0.216,0.151,0.846,0.639,0.464,0.281,0.25,0.485,0.52,0.473,0.449,0.271
